Reference: article PMC3561458 (Investigational new drugs, 2011)
Marks after values point to notes of the source that are not given here.

Test system: patients with advanced/metastatic solid tumors
Assay: Phase I safety: adverse events
Assay type: in vivo, human
Settings: for dose-limiting toxicities (DLTs): all doses

For CNC(=O)c1nn(C)c2c1C(C)(C)Cc1cnc(Nc3ccc(N4CCN(C)CC4)cc3)nc1-2 [PHA-848125AC, N,1,4,4-tetramethyl-8-{[4-(4-methylpiperazin-1-yl)phenyl]amino}-4,5-dihydro-1H-pyrazolo [4,3-h]quinazoline-3-carboxamide], the “ERG findings during treatment” value (S1) was “No abnormal ERG findings”, the “doses at which DLTs≥Grade 3 were noted” value (S1) was no less than 200 mg/day and the “Any drug-related adverse event, CTC Grade 1–4: patients” value (S1 50 mg/day N=3, all cycles) was 3. For the same compound, the “Nausea, drug-related, CTC Grade 1–4: patients” value (“Nausea, drug-related” for short) (S1 50 mg/day N=3, all cycles) was 1, the “Any drug-related adverse event, CTC Grade 1–4: patients” value (S1 100 mg/day N=6, all cycles) was 6 and the “Any drug-related adverse event, CTC Grade 3–4: patients” value (S1 100 mg/day N=6, all cycles) was 1. The “Decreased Hb, drug-related, CTC Grade 1–4: patients” value (S1 100 mg/day N=6, all cycles) was 1, the “Decreased Hb, drug-related, CTC Grade 3–4: patients” value (S1 100 mg/day N=6, all cycles) was 1 and the “Diarrhea, drug-related, CTC Grade 1–4: patients” value (S1 100 mg/day N=6, all cycles) was 1. For the same compound, the “Fatigue, drug-related, CTC Grade 1–4: patients” value (S1 100 mg/day N=6, all cycles) was 2, the “Fatigue, drug-related, CTC Grade 3–4: patients” value (S1 100 mg/day N=6, all cycles) was 1 and the “Nausea, drug-related” value (S1 100 mg/day N=6, all cycles) was 3. The “Tremor, drug-related, CTC Grade 1–4: patients” value (S1 100 mg/day N=6, all cycles) was 2, the “Vomiting, drug-related, CTC Grade 1–4: patients” value (S1 100 mg/day N=6, all cycles) was 3 and the DLT events (S1 200 mg/day) was “Grade 3 ataxia and Grade 2–3 tremors”. For the same compound, the “Any drug-related adverse event, CTC Grade 1–4: patients” value (S1 200 mg/day N=6, all cycles) was 6, the “Any drug-related adverse event, CTC Grade 3–4: patients” value (S1 200 mg/day N=6, all cycles) was 5 and the “Ataxia, drug-related, CTC Grade 1–4: patients” value (S1 200 mg/day N=6, all cycles) was 3. For the same compound, the “Ataxia, drug-related, CTC Grade 3–4: patients” value (S1 200 mg/day N=6, all cycles) was 3, the “Diarrhea, drug-related, CTC Grade 1–4: patients” value (S1 200 mg/day N=6, all cycles) was 5 and the “Diarrhea, drug-related, CTC Grade 3–4: patients” value (S1 200 mg/day N=6, all cycles) was 1. The “Dizziness, drug-related, CTC Grade 1–4: patients” value (“Dizziness, drug-related” for short) (S1 200 mg/day N=6, all cycles) was 1, the “Fatigue, drug-related, CTC Grade 1–4: patients” value (S1 200 mg/day N=6, all cycles) was 2 and the “Increased ALT, drug-related, CTC Grade 1–4: patients” value (S1 200 mg/day N=6, all cycles) was 1. For the same compound, the “Increased ALT, drug-related, CTC Grade 3–4: patients” value (S1 200 mg/day N=6, all cycles) was 1, the “Nausea, drug-related” value (S1 200 mg/day N=6, all cycles) was 4 and the “Neutropenia, drug-related, CTC Grade 1–4: patients” value (S1 200 mg/day N=6, all cycles) was 1. For the same compound, the “Neutropenia, drug-related, CTC Grade 3–4: patients” value (S1 200 mg/day N=6, all cycles) was 1, the “Syncope, drug-related, CTC Grade 1–4: patients” value (S1 200 mg/day N=6, all cycles) was 1 and the “Syncope, drug-related, CTC Grade 3–4: patients” value (S1 200 mg/day N=6, all cycles) was 1. The “Tremor, drug-related, CTC Grade 1–4: patients” value (S1 200 mg/day N=6, all cycles) was 4, the “Tremor, drug-related, CTC Grade 3–4: patients” value (S1 200 mg/day N=6, all cycles) was 2 and the “Vomiting, drug-related, CTC Grade 1–4: patients” value (S1 200 mg/day N=6, all cycles) was 4. For the same compound, the “Any drug-related adverse event, CTC Grade 1–4: patients” value (S1 300 mg/day N=1, all cycles) was 1, the “Any drug-related adverse event, CTC Grade 3–4: patients” value (S1 300 mg/day N=1, all cycles) was 1 and the “Ataxia, drug-related, CTC Grade 1–4: patients” value (S1 300 mg/day N=1, all cycles) was 1. For the same compound, the “Ataxia, drug-related, CTC Grade 3–4: patients” value (S1 300 mg/day N=1, all cycles) was 1, the “Dehydration, drug-related, CTC Grade 1–4: patients” value (S1 300 mg/day N=1, all cycles) was 1 and the “Diarrhea, drug-related, CTC Grade 1–4: patients” value (S1 300 mg/day N=1, all cycles) was 1. The “Dizziness, drug-related” value (S1 300 mg/day N=1, all cycles) was 1, the “Fatigue, drug-related, CTC Grade 1–4: patients” value (S1 300 mg/day N=1, all cycles) was 1 and the “Nausea, drug-related” value (S1 300 mg/day N=1, all cycles) was 1. For the same compound, the “Tremor, drug-related, CTC Grade 1–4: patients” value (S1 300 mg/day N=1, all cycles) was 1, the “Vomiting, drug-related, CTC Grade 1–4: patients” value (S1 300 mg/day N=1, all cycles) was 1 and the “dose-limiting toxicities (DLTs)” value (S1 (7 days on/7 days off q2wks)) was “ataxia (Grade 2–4) and tremors (Grade 2–3)”. The “patients with drug-related eye disorders” value (S1, single patient, Grade 1 increased lacrimation) was 4.5%, the “patients discontinued due to adverse events” value (S1 N=22) was 13.6% and the ataxia (S2) was “not observed”. The “fundoscopy and ERG abnormalities during treatment” value (S2) was “neither clinically relevant abnormality at fundoscopy nor ERG abnormalities”, the “Anemia, drug-related, CTC Grade 1–4: patients” value (S2 150 mg/day N=5, all cycles) was 2 and the “Any drug-related adverse event, CTC Grade 1–4: patients” value (S2 150 mg/day N=5, all cycles) was 5. The “Any drug-related adverse event, CTC Grade 3–4: patients” value (S2 150 mg/day N=5, all cycles) was 4, the “Diarrhea, drug-related, CTC Grade 1–4: patients” value (S2 150 mg/day N=5, all cycles) was 3 and the “Hypokalemia, drug-related, CTC Grade 1–4: patients” value (S2 150 mg/day N=5, all cycles) was 1. For the same compound, the “Hypokalemia, drug-related, CTC Grade 3–4: patients” value (S2 150 mg/day N=5, all cycles) was 1, the “Increased ALT, drug-related, CTC Grade 1–4: patients” value (S2 150 mg/day N=5, all cycles) was 1 and the “Increased ALT, drug-related, CTC Grade 3–4: patients” value (S2 150 mg/day N=5, all cycles) was 1. For the same compound, the “Increased Lipase, drug-related, CTC Grade 1–4: patients” value (S2 150 mg/day N=5, all cycles) was 1, the “Increased Lipase, drug-related, CTC Grade 3–4: patients” value (S2 150 mg/day N=5, all cycles) was 1 and the “Nausea, drug-related” value (S2 150 mg/day N=5, all cycles) was 3. For the same compound, the “Neutropenia, drug-related, CTC Grade 1–4: patients” value (S2 150 mg/day N=5, all cycles) was 1, the “Tremor, drug-related, CTC Grade 1–4: patients” value (S2 150 mg/day N=5, all cycles) was 3 and the “Vomiting, drug-related, CTC Grade 1–4: patients” value (S2 150 mg/day N=5, all cycles) was 2. The “Vomiting, drug-related, CTC Grade 3–4: patients” value (S2 150 mg/day N=5, all cycles) was 1, the “Anemia, drug-related, CTC Grade 1–4: patients” value (S2 200 mg/day N=4, all cycles) was 2 and the “Any drug-related adverse event, CTC Grade 1–4: patients” value (S2 200 mg/day N=4, all cycles) was 4. For the same compound, the “Any drug-related adverse event, CTC Grade 3–4: patients” value (S2 200 mg/day N=4, all cycles) was 2, the “Dehydration, drug-related, CTC Grade 1–4: patients” value (S2 200 mg/day N=4, all cycles) was 1 and the “Diarrhea, drug-related, CTC Grade 1–4: patients” value (S2 200 mg/day N=4, all cycles) was 3. For the same compound, the “Diarrhea, drug-related, CTC Grade 3–4: patients” value (S2 200 mg/day N=4, all cycles) was 1, the “Dizziness, drug-related” value (S2 200 mg/day N=4, all cycles) was 2 and the “Fatigue, drug-related, CTC Grade 1–4: patients” value (S2 200 mg/day N=4, all cycles) was 3. For the same compound, the “Nausea, drug-related” value (S2 200 mg/day N=4, all cycles) was 1, the “Neutropenia, drug-related, CTC Grade 1–4: patients” value (S2 200 mg/day N=4, all cycles) was 1 and the “Tremor, drug-related, CTC Grade 1–4: patients” value (S2 200 mg/day N=4, all cycles) was 2. The “Tremor, drug-related, CTC Grade 3–4: patients” value (S2 200 mg/day N=4, all cycles) was 1, the “Vomiting, drug-related, CTC Grade 1–4: patients” value (S2 200 mg/day N=4, all cycles) was 1 and the “dose-limiting toxicities (DLTs)” value (S2 (4 days on/3 days off × 3wks q4wks)) was “tremors (Grade 2–3), elevated lipase (Grade 3), increased creatinine (Grade 2), and nausea and vomiting (Grade 3)”. The “patients discontinued due to adverse events” value (S2 N=15) was 13.3 ^a %, the “blood chemistry and hematology abnormalities” value (any schedule, except lymphocytopenia) was “No significant blood chemistry and hematology abnormalities” and the “doses at which tremors and ataxia were dose-limiting” value (both schedules) was greater than 150 mg/day. For the same compound, the lymphocytopenia occurrence (both schedules) was “half of cases”, the on study deaths (both schedules) was “No on study deaths” and the “effects on coagulation, blood pressure, ECGs” value (in vivo) was “did not cause significant effects”. For the same compound, the “recommended phase II dose (RP2D)” value (oral, both schedules (S1 and S2)) was 150 mg/day.
